Consider 18 compounds from US20090239845A1, “PYRAZOLE COMPOUNDS AS PROSTAGLANDIN RECEPTORS LIGANDS” (priority 2005, published 2009).

SMILES strings stand for the structures. Where a name gives a salt, the structure may show the parent alone.

One test relates to gastric lesions induced by taurocholate acid, aspirin or indomethacin.
Test: not given
The settings on record: rats, J Pharmacol Exp Ther 1992, 263(1), 374-380; cited from earlier work.
For `O=C(O)Cc1ccc(CCNS(=O)(=O)c2ccc(Cl)cc2)cc1` [BM 13505], the gastric lesions result is on record as “inhibit gastric lesions”.

For the compound `O=C(O)CCc1ccccc1CC1C2CCC(O2)C1c1nc(C(=O)NCCCCC2CCCCC2)co1` (stereo not drawn) [SQ 33961], the gastric lesions entry is reported as “inhibit gastric lesions”.

The next test deals with T1, human EP3 receptor (Homo sapiens, UniProt P43115).
T1 construct: expressed in transfected cells; host or cells: CHO-K1
T1 sequence (P43115 1-390): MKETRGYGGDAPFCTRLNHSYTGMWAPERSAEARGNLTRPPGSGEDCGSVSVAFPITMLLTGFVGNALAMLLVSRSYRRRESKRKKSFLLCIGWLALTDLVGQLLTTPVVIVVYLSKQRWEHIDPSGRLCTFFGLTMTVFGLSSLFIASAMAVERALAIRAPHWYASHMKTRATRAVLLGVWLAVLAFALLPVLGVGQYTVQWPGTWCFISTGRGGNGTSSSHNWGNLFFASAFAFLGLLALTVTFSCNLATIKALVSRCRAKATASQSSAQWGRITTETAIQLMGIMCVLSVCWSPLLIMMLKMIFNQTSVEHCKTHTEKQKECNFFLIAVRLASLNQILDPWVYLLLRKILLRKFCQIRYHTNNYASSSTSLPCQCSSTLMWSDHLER
As to the kind of experiment: human EP3 calcium mobilisation assay. It counts as cell-based. The note with it: negative logarithm10 of the antagonist dissociation constant; CHO-K1 cells, PGE2; free bases or sodium salts; averages of a number of experiments; read-out: functional pKi value (converted). How it is done: Briefly, the antagonist properties of compounds are assessed by their ability to inhibit the mobilisation of intracellular calcium ([Ca^2+]i) in response to activation of EP1 or EP3 receptors by the natural agonist hormone prostaglandin E2 (PGE2). Increasing concentrations of antagonist reduce the amount of calcium that a given concentration of PGE2 can mobilise. The net effect is to displace the PGE2 concentration-effect curve to higher concentrations of PGE2. The amount of calcium produced is assessed using a calcium-sensitive fluorescent dye such as Fluo-4, AM and a suitable instrument such as a Fluorimetric Imaging Plate Reader (FLIPR). Increasing amounts of [Ca^2+]i produced by receptor activation increase the amount of fluorescence produced by the dye and give rise to an increasing signal. The signal may be detected using the FLIPR instrument and the data generated may be analysed with suitable curve-fitting software.
The human EP1 or EP3 calcium mobilisation assay (hereafter referred to as ‘the calcium assay’) utilises Chinese hamster ovary-K1 (CHO-K1) cells into which a stable (pCIN; BioTechniques 20 (1996): 102-110) vector containing either EP1 or EP3 cDNA has previously been transfected. Cells are cultured in suitable flasks containing culture medium such as DMEM:F-12 supplemented with 10% v/v foetal calf serum, 2 mM L-glutamine, 0.25 mg/ml geneticin, 100 μM flurbiprofen and 10 μg/ml puromycin.
For assay, cells are harvested using a proprietary reagent that dislodges cells such as Versene. Cells are re-suspended in a suitable quantity of fresh culture media for introduction into a 384-well plate. Following incubation for 24 hours at 37° C. the culture media is replaced with a medium containing Fluo-4 and the detergent pluronic acid, and a further incubation takes place. Concentrations of compounds are then added to the plate in order to construct concentration-effect curves. This may be performed on the FLIPR in order to assess the agonist properties of the compounds. Concentrations of PGE2 are then added to the plate in order to assess the antagonist properties of the compounds.
The data so generated may be analysed by means of a computerised curve-fitting routine. The concentration of compound that elicits a half-maximal inhibition of the calcium mobilisation induced by PGE2 (plC50) may then be estimated.
For `CCC(C)NC(=O)Oc1cc(C)n(Cc2cc(Cl)ccc2OCC(C)C)n1` (stereo not drawn) [Example 50, 1-({5-Chloro-2-[(2-methylpropyl)oxy]phenyl}methyl)-5-methyl-1H-pyrazol-3-yl (1-methylpropyl)carbamate], the Ki is 158 to 316 nM.

On to `Cc1cc(OC(=O)NC2CCCC2)nn1Cc1cc(Cl)ccc1OCC(C)C` [Example 52, 1-({5-Chloro-2-[(2-methylpropyl)oxy]phenyl}methyl)-5-methyl-1H-pyrazol-3-yl cyclopentylcarbamate], for which the Ki was 158 to 316 nM.

As to `Cc1cc(N(C)C(=O)OC(C)(C)C)nn1Cc1cc(Cl)ccc1OCc1ccccc1` [Example 75, 1,1-Dimethylethyl[({5-chloro-2-[(phenylmethyl)oxy]phenyl}methyl)-5-methyl-1H-pyrazol-3-yl]methylcarbamate], the Ki is 158 to 316 nM.

Regarding `Cc1cc(NC(=O)C(F)(F)F)nn1Cc1cc(Cl)ccc1OCC(C)C` [Example 95, N-[1-({5-Chloro-2-[(2-methylpropyl)oxy]phenyl}methyl)-5-methyl-1H-pyrazol-3-yl]-2,2,2-trifluoroacetamide], the Ki is 158 to 316 nM. Take `Cc1cc(N(C)C(=O)c2ccccc2)nn1Cc1cc(Cl)ccc1OCc1ccccc1` [Example 180, N-[1-({5-Chloro-2-[(phenylmethyl)oxy]phenyl}methyl)-5-methyl-1H-pyrazol-3-yl]-N-methylbenzamide]: the Ki is 158 to 316 nM. The same measure, in the same setting: the figure for `Cc1cc(NC(=O)c2ccccc2CO)nn1Cc1cc(Cl)ccc1OCC(C)C` [Example 183, N-[1-({5-Chloro-2-[(2-methylpropyl)oxy]phenyl}methyl)-5-methyl-1H-pyrazol-3-yl]-2-(hydroxymethyl)benzamide] is 158 to 316 nM; for `Cc1cc(N2Cc3ccccc3C2=O)nn1Cc1cc(Cl)ccc1OCC(C)C` [Example 184, 2-[1-({5-Chloro-2-[(2-methylpropyl)oxy]phenyl}methyl)-5-methyl-1H-pyrazol-3-yl]-2,3-dihydro-1H-isoindol-1-one] it is 158 to 316 nM.

Take `Cc1cc(NC(=O)c2cccc(C=O)c2)nn1Cc1cc(Cl)ccc1OCC(C)C` [Example 187, N-[1-({5-Chloro-2-[(2-methylpropyl)oxy]phenyl}methyl)-5-methyl-1H-pyrazol-3-yl]-3-formylbenzamide]: the Ki is 158 to 316 nM.

Take `Cc1cc(N2CCN(Cc3ccccn3)CC2=O)nn1Cc1cc(Cl)ccc1OCC(C)C` [Example 227, 1-[1-({5-Chloro-2-[(2-methylpropyl)oxy]phenyl}methyl)-5-methyl-1H-pyrazol-3-yl]-4-(2-pyridinylmethyl)-2-piperazinone dihydrochloride]: the Ki is 158 to 316 nM. On the same count and under the same terms, the figure for `Cc1cc(-c2cn3ccccc3n2)nn1Cc1cc(Cl)ccc1OCC(C)C` [Example 364, 2-[1-({5-Chloro-2-[(2-methylpropyl)oxy]phenyl}methyl)-5-methyl-1H-pyrazol-3-yl]imidazo[1,2-a]pyridine hydrochloride] is 158 to 316 nM; for `CCOC(CNC(=O)c1cc(C)n(Cc2cc(Cl)ccc2OCC(C)C)n1)OCC` [Example 387, N-[2,2-Bis(ethyloxy)ethyl]-1-({5-chloro-2-[(2-methylpropyl)oxy]phenyl}methyl)-5-methyl-1H-pyrazole-3-carboxamide] it is 158 to 316 nM.

Another test deals with T2, human prostanoid EP1 receptor (Homo sapiens, UniProt P34995).
T2 construct: expressed in transfected cells; host or cells: CHO-K1 (membrane fraction)
T2 sequence (P34995 1-402): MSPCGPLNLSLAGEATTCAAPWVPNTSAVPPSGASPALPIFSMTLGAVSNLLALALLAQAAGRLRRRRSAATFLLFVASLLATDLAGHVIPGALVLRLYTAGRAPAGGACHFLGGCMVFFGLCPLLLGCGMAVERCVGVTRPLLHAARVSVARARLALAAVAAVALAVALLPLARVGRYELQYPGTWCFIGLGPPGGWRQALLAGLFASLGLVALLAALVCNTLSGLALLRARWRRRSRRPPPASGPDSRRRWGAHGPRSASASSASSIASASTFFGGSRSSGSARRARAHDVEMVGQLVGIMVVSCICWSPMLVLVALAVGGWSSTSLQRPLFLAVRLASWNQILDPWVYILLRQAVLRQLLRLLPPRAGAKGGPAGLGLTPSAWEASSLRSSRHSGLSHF
Briefly: Binding assay for the human prostanoid EP1 receptor (competition with [3H]-PGE2). The settings on record: negative logarithm10 of the IC50; competition with [3H]-PGE2, CHO-K1 cell membranes; averages of a number of experiments; read-out: pIC50 value (converted). As for the experimental part:
Competition assay using [^3H]-PGE2.
Compound potencies are determined using a radioligand binding assay. In this assay compound potencies are determined from their ability to compete with tritiated prostaglandin E2 ([^3H]-PGE2) for binding to the human EP1 receptor.
This assay utilises Chinese hamster ovary-K1 (CHO-K1) cells into which a stable vector containing the EP1 cDNA has previously been transfected. Cells are cultured in suitable flasks containing culture medium such as DMEM:F-12 supplemented with 10% v/v foetal calf serum, 2 mM L-glutamine, 0.25 mg/ml geneticin, 10 μg/ml puromycin and 10 μM indomethacin.
Cells are detached from the culture flasks by incubation in calcium and magnesium free phosphate buffered saline containing 1 mM disodium ethylenediaminetetraacetic acid (Na2EDTA) and 10 μM indomethacin for 5 min. The cells are isolated by centrifugation at 250×g for 5mins and suspended in an ice cold buffer such as 50 mM Tris, 1 mM Na2EDTA, 140 mM NaCl, 10 μM indomethacin (pH 7.4). The cells are homogenised using a Polytron tissue disrupter (2×10s burst at full setting), centrifuged at 48,000×g for 20mins and the pellet containing the membrane fraction is washed (optional) three times by suspension and centrifugation at 48,000×g for 20mins. The final membrane pellet is suspended in an assay buffer such as 10 mM 2-[N-morpholino]ethanesulphonic acid, 1 mM Na2EDTA, 10 mM MgCl2 (pH 6). Aliquots are frozen at −80° C. until required.
For the binding assay the cell membranes, competing compounds and [^3H]-PGE2 (3 nM final assay concentration) are incubated in a final volume of 100 μl for 30 min at 30° C. All reagents are prepared in assay buffer. Reactions are terminated by rapid vacuum filtration over GF/B filters using a Brandell cell harvester. The filters are washed with ice cold assay buffer, dried and the radioactivity retained on the filters is measured by liquid scintillation counting in Packard TopCount scintillation counter.
The data are analysed using non linear curve fitting techniques to determine the concentration of compound producing 50% inhibition of specific binding (IC50).
On to `Cc1cc(NC(=O)OC(C)(C)C)nn1Cc1cc(Br)ccc1OCc1ccc(F)cc1F` [Example 6, 1,1-Dimethylethyl {1-[(5-bromo-2-{[(2,4-difluorophenyl)methyl]oxy}phenyl)methyl]-5-methyl-1H-pyrazol-3-yl}carbamate], for which the IC50 is not above 10 nM. With `Cc1cc(NC(=O)OC(C)C)nn1Cc1cc(Br)ccc1OCc1ccc(Cl)cc1Cl` [Example 9, 1-Methylethyl {1-[(5-bromo-2-{[(2,4-dichlorophenyl)methyl]oxy}phenyl)methyl]-5-methyl-1H-pyrazol-3-yl]carbamate], the IC50 was not above 10 nM. As for `Cc1cc(NC(=O)Cc2ccccc2)nn1Cc1cc(Cl)ccc1OCc1cc(F)c(F)cc1F` [Example 126, N-{1-[(5-Chloro-2-{[(2,4,5-trifluorophenyl)methyl]oxy}phenyl)methyl]-5-methyl-1H-pyrazol-3-yl}-2-phenylacetamide], the IC50 is not above 10 nM. As for `Cc1cc(C(=O)Nc2ccc(CN3CCNC(=O)C3)cc2)nn1Cc1cc(Cl)ccc1OCC(C)C` [Example 399, 1-({5-Chloro-2-[(2-methylpropyl)oxy]phenyl}methyl)-5-methyl-N-{4-[(3-oxo-1-piperazinyl)methyl]phenyl}-1H-pyrazole-3-carboxamide hydrochloride], the IC50 is not above 10 nM. As to `Cc1cc(-c2nc3ccc(N(C)C)cc3[nH]2)nn1Cc1cc(Cl)ccc1OCC(C)C` [Example 473, 2-[1-({5-Chloro-2-[(2-methylpropyl)oxy]phenyl}methyl)-5-methyl-1H-pyrazol-3-yl]-N,N-dimethyl-1H-benzimidazol-5-amine dihydrochloride], the IC50 was not above 10 nM.

For a further test, the target named is T3, human EP1 receptor (Homo sapiens, UniProt P34995).
T3 construct: expressed in transfected cells; host or cells: CHO-K1
T3 sequence (P34995 1-402): T2 sequence (P34995 1-402)
Briefly: human EP1 calcium mobilisation assay. The test is classed as cell-based. The settings on record: negative logarithm10 of the antagonist dissociation constant; CHO-K1 cells, PGE2; free bases or sodium salts; averages of a number of experiments; read-out: functional pKi value (converted).
Take `Cc1cc(NC(=O)OC(C)(C)C)nn1Cc1cc(Br)ccc1OCc1ccc(F)cc1F` [Example 6, 1,1-Dimethylethyl {1-[(5-bromo-2-{[(2,4-difluorophenyl)methyl]oxy}phenyl)methyl]-5-methyl-1H-pyrazol-3-yl}carbamate]: the Ki was more than 1000 nM. Still for that read-out and setting: for `Cc1cc(NC(=O)OC(C)C)nn1Cc1cc(Br)ccc1OCc1ccc(Cl)cc1Cl` [Example 9, 1-Methylethyl {1-[(5-bromo-2-{[(2,4-dichlorophenyl)methyl]oxy}phenyl)methyl]-5-methyl-1H-pyrazol-3-yl]carbamate] the value was more than 1000 nM; for `Cc1cc(NC(=O)Cc2ccccc2)nn1Cc1cc(Cl)ccc1OCc1cc(F)c(F)cc1F` [Example 126, N-{1-[(5-Chloro-2-{[(2,4,5-trifluorophenyl)methyl]oxy}phenyl)methyl]-5-methyl-1H-pyrazol-3-yl}-2-phenylacetamide], more than 1000 nM.
